Assay results taken from patent US20240374609A1, “NITROSAMINE IMPURITY, VARENICLINE PHARMACEUTICAL COMPOSITION CAPABLE OF REDUCING GENERATION OF NITROSAMINE IMPURITIES AND PREPARATION AND USE THEREOF” (VIWIT PHARMACEUTICALCO., LTD., priority 2021, published 2024).
Read-outs that look alike come from different tables or passages of the source.

Columns and labels:
[1] = system: Salmonella Typhimurium TA102; experiment: Ames test, plate incorporation method, TA102; assay type: cell-based; conditions: positive control
Method: (§1) Salmonella Typhimurium TA97a, TA98, TA100, TA102, and TA1535 from MOLT OX, USA, were purchased from Shanghai Bioplus Biotech. Co., Ltd. The test was carried out using Salmonella typhimurium strains that were identified as meeting the requirements.
(§2) Rat liver S9 from Shanghai Bioplus Biotech. Co., Ltd.
(§3) The experiments were performed using the plate incorporation method.
(§4) Dose selection: The experiments were performed using 5 mg, 2.5 mg, 1.25 mg, 0.625 mg, 0.3125 mg, and 0.15625 mg per dish.
(§5) Test substance preparation: nitrosamine impurity compound P08 was prepared to a solution of 50 mg/ml with dimethyl-sulfoxide, and diluted with dimethyl-sulfoxide to give the solutions of 25 mg/ml, 12.5 mg/ml, 6.25 mg/ml, 3.125 mg/ml, and 1.5625 mg/ml successively.
(§6) 0.1 ml of frozen bacterial solutions TA97a, TA98, TA100, TA102 and TA1535 were inoculated into the 10 ml nutrient broth mediums respectively, and cultured at 37° C. (100/min) for 10 h with shaking (100 times/min). 2.0 ml of top layer medium containing 0.5 mmol/L histidine −0.5 mmol/L biotin was dispensed into test tubes, sterilized by 0.103 MPa for 20 min, and kept in a water bath at 50° C. Then, 0.1 ml of the test substance solution, 0.5 ml of the S9 mixture (when metabolic activation was required) and 0.1 ml of the bacterial solution were added into each tube successively, mixed sufficiently, and poured into the bottom layer agar plates quickly. Then, the plates were turned to distribute even. After being placed horizontally for condensation and solidification, the plates were inverted and incubated in an incubator at 37° C. for 48 h, and the number of reverse mutation colonies per dish was counted. Three parallel plates of each dose were made, containing the spontaneous reverse mutation group, the solvent control group and the positive control group.
(§7) The data were expressed as means±standards deviation (x±s), and SPSS 19.0 was used for calculation of data analysis.
(§8) If the test substance tested by the above test strain is negative both with and without S9, then the test substance is determined to be mutagenic negative.

[2] = system: Salmonella Typhimurium TA1535; assay type: cell-based; conditions: positive control
Method: as §1, §2, §3, §4, §5, §6, §7, §8

[3] = system: Salmonella Typhimurium TA98; experiment: Ames test, plate incorporation method, TA98; assay type: cell-based; conditions: positive control, TA98, −S9, 50 μg/dish
Method: (§9) Salmonella Typhimurium TA97a, TA98, TA100, TA102, and TA1535 from MOLT OX, USA, were purchased from Shanghai Bioplus Biotech.
as §2, §3, §4, §6, §7, §8

[4] = system: Salmonella Typhimurium TA97a; experiment: Ames test, plate incorporation method, TA97a; assay type: cell-based; conditions: positive control, −S9, 50 μg/dish
Method: as §9, §2, §3, §4, §6, §7, §8

[5] = system: Salmonella Typhimurium TA100; experiment: Ames test, plate incorporation method, TA100; assay type: cell-based; conditions: positive control, TA100, −S9, 1 μl/dish
Method: as §9, §2, §3, §4, §6, §7, §8

[6] = Content of nitrosamine impurity P08 in varenicline tartrate tablets, initial and at high temperature (HPLC Q-Exactive-MS/MS); assay type: physicochemical
Method: After ultrasound for 5 min, the pH of the dispersion was measured. The content of the nitrosamine impurity P08 in the varenicline tartrate tablets were measured by HPLC Q-Exactive-MS/MS (Vanquish HPLC Q-Exactive-MS/MS).
Wherein, • “API” (Active Pharmaceutical Ingredient) refers to the API of varenicline tartrate. • “Initial” refers to the immediate measurement after the preparation of the varenicline tartrate tablet. • “Measurement at high-temperature” refers to the measurement after keeping at 60° C. of the prepared varenicline tartrate tablet for a period of time (see “Chinese Pharmacopoeia”). • Symbol * refers to the liquid sample after adjusting the pH value, and the liquid sample is tested. • Symbol # refers to the liquid sample after adjusting the pH value which is subjected to a high temperature test, and then the liquid sample is tested.
Methodologically validated HPLC Q-Exactive-MS/MS (Vanquish HPLC Q-Exactive-MS/MS) was used for the qualitative and/or quantitative determination of nitrosamine impurity P08 in varenicline tartrate tablets. The measurement results are shown in Example 4.
Sample solution: 10 varenicline tartrate tablets were placed in a 10 ml volumetric flask, added with 3 mL of purified water and 3 mL of acetonitrile, sonicated for 30s, then diluted with acetonitrile to volume and mixed evenly.
C (ppm)=the concentration (ng/ml) of P08 in the sample solution/the concentration (mg/ml) of varenicline tartrate in the sample solution.

O=C1c2cccc(O)c2C(=O)c2c(O)cccc21 [1,8-dihydroxyanthraquinone, reference compound]
number of reverse mutation colonies per dish (x ± s) ([1]; TA102, +S9, 50 μg/dish): 921 ± 32

[N-]=[N+]=[N-] [Sodium azide, sodium azide, reference compound]
number of reverse mutation colonies per dish (x ± s) ([2]; TA1535, −S9, 1.5 μg/dish): 570 ± 46

CN(C)c1ccc(N=NS(=O)(=O)[O-])cc1.[Na+] [Dexon, reference compound]
number of reverse mutation colonies per dish (x ± s) [3]: 691 ± 43 | number of reverse mutation colonies per dish (x ± s) [4]: 1294 ± 64

O=P1(N(CCCl)CCCl)NCCCO1 (stereo not shown) [Cyclophosphamide, cyclophosphamide, reference compound]
number of reverse mutation colonies per dish (x ± s) ([2]; TA1535, +S9, 200 μg/dish): 171 ± 11

COS(C)(=O)=O [Methyl methanesulfonate, methyl methanesulfonate, reference compound]
number of reverse mutation colonies per dish (x ± s) [5]: 1596 ± 71 | number of reverse mutation colonies per dish (x ± s) ([1]; TA102, −S9, 1 μl/dish): 2418 ± 257

varenicline tartrate [API]
P08 in API ([6]; API of varenicline tartrate used for blue coating tablets): 0.511 ppm | P08 in API ([6]; API of varenicline tartrate used for core tablets): 0.511 ppm | P08 in API ([6]; API of varenicline tartrate used for white coating tablets): 0.511 ppm
